The values below come from patent publication US8377972B2, “Use of quaternary pyridinium compounds for vasoprotection and/or hepatoprotection” (Trigendo Sp. zo.o., priority 2007, dated 2013).

Molecules are shown by their SMILES. Entries after “also recorded” stand apart in the source; their conditions may differ. Like-named read-outs stand apart in the source and are kept apart here. Where only a bound is given, the exact number is not on record here.

Assay [1] concerns Zucker fatty rats (fa/fa). Nature of the assay: Antidiabetic effects in the rat model of metabolic syndrome (glucose injection). The format is in vivo. Particulars: 7 days treatment (thermolysate 100 mg/kg, metformin 500 mg/kg), glucose 2 g/kg i.p., 0-90 minutes.
Experimental: After 7 days glucose was injected at 2 g/kg (i.p.) and postprandial hyperglycemia was analyzed in the following periods: 0, 15, 30, 60 and 90 minutes after the injection of glucose.
The nature of assay [2]: Binding of pyridinium cations to sepharose-immobilized heparin (spectrophotometric). Particulars: immobilized heparin 25 mg/mL, tested compounds 20÷100 μM in water, 5 minutes, room temperature. The source says:
The presence of the heparin in the pyridinium salt solution changes the absorption spectrum of the salt through the non-specific electrostatic interactions of pyridinium cations with negatively charged heparin moieties. The use of water-insoluble sepharose-immobilized heparin which binds some fraction of pyridinium cations causes the decrease of the concentration of the salt in the solution.
At the high excess of the immobilized heparin in relation to the pyridinium salt concentration the degree of binding depends only on the heparin concentration. It allows, by using the experimental methodology described below, to estimate the degree of binding of different pyridinium compounds to heparin, provided that analogical concentrations of pyridinium salts and constant concentration of sepharose-immobilized heparin are used.
To estimate a degree of binding of the pyridinium_compounds with heparin spectrophotometric method based on the absorption measurements of aqueous solutions of tested compounds at 20÷100 μM before and after a contact with heparin was used.
The suspensions of immobilized heparin with the tested compounds were then placed into Eppendorf microtubes and centrifuged at 13 000 rpm for 4 minutes using FORCE 1418 microcentrifuge from Labnet Int. (Edison, N.J., USA). The UV-Vis absorption spectra of the resulting clear supernatants was measured with Perkin Elmer Lambda 40 spectrophotometer. All measurements were performed at room temperature. The degree of binding was estimated based on comparison of integrated area under the absorption curve for the solutions incubated and non-contacted with heparin.

Assay [3] concerns platelet-rich thrombus. Nature of the assay: Thrombolytic response in vivo in rats with extracorporeal circulation (thrombus on collagen strip). Further details: species or system Wistar rats. Particulars: for thrombolytic response, maxima / thrombolytic response (in words): 30 mg/kg intravenous; for thrombolytic response (in words): Wistar rats; for Thrombolytic response: Table 3, trigonelline and its thermal decomposition products. As to the method: Thrombolytic activity was assayed by the method developed originally by Gryglewski et al., (Gryglewski R J, Korbut R, Ocetkiewicz A, Stachura J. In vivo method for quantitation for anti-platelet potency of drugs. Naunyn Schmiedebergs Arch Pharmacol 1978; 302:25-30; Gryglewski R J 1978, Gryglewski et al., 2001). The scheme of the method is shown on FIG. 1.
Wistar rats (body weight of 300-350 g) were anaesthetised (thiopental 95 mg/kg i.p) and heparinised (800 U/kg i.v.). Caniules were placed in arteries and connected from the left carotid artery vein with a pressure sensor and from the right carotid artery through heated (37° C.) line to peristaltic pomp. The blood from carotid artery was pumped to the extracorporeal circulation were it superfused (1.5 ml/min) a 3 cm collagen strip excised from Achilles tendon hung on a spring-balanced auxotonic lever of a Harvard 386 isotonic transducer and the weight of the collagen strip was continuously registered. After superfusion the blood was returned to the circulation of an animal. During superfusion a thrombus made of platelets aggregates stuck in the fibrin network (microscopically visualized by the Weigert method) was formed on the surface of the collagen strip. A pressure and the thrombus weight were continuously recorded.
Then the trigonelline thermolysate, 1-methylpyridine or 1,4-dimethylpyridine were injected intravenously into the femoral vein (30 mg·kg^−1).

Assay [4] relates to platelet-rich thrombus. Particulars: Table 2; known anti-thrombotic activity, documented in WO 2005/067927; cited from earlier work.
The next assay deals with Balb/c mice. Nature of the assay: Hepatoprotective effect in mice model of acute liver injury (Concanavalin A-induced hepatitis). The format is in vivo. Particulars: 100 mg/kg per os for 7 days, ConA 20 mg/kg i.v., 8 hours later. As to the method:
Balb/c mice at the age of 2 months were treated for 7 days with 1,4-dimethylpyridinium chloride (100 mg/kg, per os) or were left untreated and then mice were injected with Concanavalin A (ConA) inducing T cell-mediated hepatitis. ConA was injected intravenously at a dose of 20 mg/kg and 8 hours later liver injury was assessed on the basis of transaminase (AST) level in plasma.

As to `CN(C)C(=N)N=C(N)N` [metformin], the “postprandial hyperglycemia induced by glucose injection” value in assay [1] is reported as “decreased postprandial hyperglycemia”.

In turn, `Cc1cc[n+](C)cc1C(=O)[O-]` [4MeTryg, 4-methyltrigonelline] gave a Degree of binding in assay [2] greater than 5%.

Take `NC(=O)c1ccc[n+]([O-])c1` [N—OX, nicotinamide N-oxide]: the Degree of binding in assay [2] is given as greater than 10%.

With `NC(=O)c1cccnc1` [NA, nicotinamide], the Degree of binding result in assay [2] was “≈0%”. In addition, in the assay with platelet-rich thrombus [3], the “thrombolytic response, maxima” value is recorded as 9±0.6% and the “thrombolytic response (in words)” value was “lack of significant thrombolytic response”. Further, the Thrombolytic response result with platelet-rich thrombus [4] is reported as “no”.

As for `C[n+]1cccc(C(=O)[O-])c1` [Tryg, trigonelline], the Degree of binding result in assay [2] was “≈0%”. Besides, in the assay with platelet-rich thrombus [3], the “thrombolytic response (in words)” value is reported as “lack of significant thrombolytic response; also recorded: did not induce significant thrombolytic response” and the Thrombolytic response entry is on record as “no”.

In turn, `C[n+]1cccc(C(=O)NCO)c1` [MNAF^+, 1-methyl-N′-(hydroxy-methyl) nicotinamide] gave a Degree of binding in assay [2] greater than 35%. Besides, in the assay on platelet-rich thrombus [4], the Thrombolytic response entry was “yes”.

The compound `CC(=O)c1ccc[n+](C)c1` [MAP^+, 1-methyl-3-acetyl-pyridine] registered a Degree of binding in assay [2] greater than 25%. For the same compound, the Thrombolytic response entry in the assay with platelet-rich thrombus [4] is on record as “yes”.

For the compound `Cc1cccc[n+]1C` [12-DMP^+, 1,2-dimethylpyridine], in assay [2], the Degree of binding is reported as greater than 15%.

For `O=C(O)c1cccnc1` [NC, nicotinic acid], the Degree of binding in assay [2] is listed as greater than 40%. In the assay on platelet-rich thrombus [3], the “thrombolytic response, maxima” value worked out at 5±0.9% and the “thrombolytic response (in words)” value is given as “lack of significant thrombolytic response”. Further, the Thrombolytic response entry in the assay on platelet-rich thrombus [4] is given as “no”.

With `C[n+]1ccccc1` [MP^+, 1-methylpyridine], the Degree of binding in assay [2] is reported as greater than 25%. Besides, in the assay on platelet-rich thrombus [3], the “thrombolytic response (in words)” value is “moderate thrombolytic response” and the Thrombolytic response result is on record as “yes”.

`C[n+]1cccc(C(N)=O)c1` [MNA^+, 1-methyl-nicotinamide]: the Degree of binding in assay [2] was greater than 45%. In addition, in the assay with platelet-rich thrombus [4], the Thrombolytic response result is reported as “yes”.

For the compound `Cn1cc(C(N)=O)ccc1=O` [2-PYR, 1-methyl-2-pyridone-5-carboxamide], the Degree of binding in assay [2] is on record as greater than 5%. Further, the Thrombolytic response entry in the assay on platelet-rich thrombus [4] was “no”.

In assay [2], `Cc1cc[n+](C)cc1` [14-DMP^+, 1,4-dimethylpyridine] returned a Degree of binding greater than 20%. Also, the Thrombolytic response entry with platelet-rich thrombus [3] is recorded as “yes”. Further, the “transaminase (AST) level in plasma after ConA injection” value in the assay with Balb/c mice is listed as “prevented a rise in AST levels”.
